Experimental data: PubChem BioAssay AID274 (DTP/NCI, 2004)
Several values for one entry are separate records, joined by “and”; a condition that tells them apart may be missing. Equal values may be shown once. Inconclusive results and toxic doses are left out. Rule for the calls: active = survival T/C of 150% or more; inactive = T/C below 125% in these data.

System: BDF1 mice, Lewis lung carcinoma iv, survival T/C
Assay: NCI In Vivo Anticancer Drug Screen. Data for tumor model Lewis Lung Carcinoma (intravenous) in B6D2F1 (BDF1) mice
Conditions: endpoint: median survival time, higher = longer survival
Description: The antitumor activity of compounds was measured in mice bearing transplantable tumors. Survival or tumor size were measured and the results are expressed as the measurement made in the treated group (T) divided by the measurement made in the vehicle treated control group (C). The tumor model used in this assay is Lewis Lung Carcinoma (intravenous) in B6D2F1 (BDF1) mice

[1] = dose: 25.0 mg/kg/injection, schedule: Q01DX009 (ip), vehicle: saline
[2] = dose: 50.0 mg/kg/injection, schedule: Q01DX009 (ip), vehicle: saline
[3] = dose: 12.5 mg/kg/injection, schedule: Q01DX009 (ip), vehicle: saline with Tween-80
[4] = dose: 25.0 mg/kg/injection, schedule: Q01DX009 (ip), vehicle: saline with Tween-80
[5] = dose: 50.0 mg/kg/injection, schedule: Q01DX009 (ip), vehicle: saline with Tween-80
[6] = dose: 3.12 mg/kg/injection, schedule: Q01DX009 (ip), vehicle: saline with Tween-80
[7] = dose: 100.0 mg/kg/injection, schedule: Q01DX009 (ip), vehicle: saline with Tween-80
[8] = dose: 100.0 mg/kg/injection, schedule: Q01DX009 (ip), vehicle: saline
[9] = dose: 6.25 mg/kg/injection, schedule: Q01DX009 (ip), vehicle: distilled water + Tween-80
[10] = dose: 12.5 mg/kg/injection, schedule: Q01DX009 (ip), vehicle: distilled water + Tween-80
[11] = dose: 50.0 mg/kg/injection, schedule: Q01DX009 (ip), vehicle: distilled water + Tween-80
[12] = dose: 12.5 mg/kg/injection, schedule: Q01DX009 (ip), vehicle: saline

Measured: T/C

CCC(C(=O)O)C(=O)O.[NH-]CC1CCCC[N-]1.[Pt+2]
inactive: [1] 98 % of control and 100 % of control | [2] 100 % of control

CC(C)CC(NC(=O)CF)C(=O)O (stereo unspecified)
inactive: dose: 0.31 mg/kg/injection, schedule: Q01DX009 (ip), vehicle: saline 98 % of control | dose: 0.63 mg/kg/injection, schedule: Q01DX009 (ip), vehicle: saline 94 % of control | dose: 1.25 mg/kg/injection, schedule: Q01DX009 (ip), vehicle: saline 90 % of control | dose: 2.5 mg/kg/injection, schedule: Q01DX009 (ip), vehicle: saline 102 % of control | dose: 5.0 mg/kg/injection, schedule: Q01DX009 (ip), vehicle: saline 91 % of control

CC(C)CCCCCCCCCCCCC(=O)NCC(=O)NC1C(O)C(O)C(Nc2ncnc3nc[nH]c23)OC1C(O)CO (stereo unspecified)
inactive: dose: 0.25 mg/kg/injection, schedule: Q01DX009 (ip), vehicle: Klucel (hydroxypropylcellulose) (HPC) 102 % of control | dose: 1.0 mg/kg/injection, schedule: Q01DX009 (ip), vehicle: Klucel (hydroxypropylcellulose) (HPC) 90 % of control | dose: 2.0 mg/kg/injection, schedule: Q01DX009 (ip), vehicle: Klucel (hydroxypropylcellulose) (HPC) 93 % of control

CCCCCc1cc(/C=C2/N=C(c3ccc[nH]3)C=C2OC)[nH]c1C
inactive: dose: 0.25 mg/kg/injection, schedule: Q01DX009 (ip), vehicle: suspension in saline 94 % of control | dose: 0.5 mg/kg/injection, schedule: Q01DX009 (ip), vehicle: suspension in saline 100 % of control | dose: 1.0 mg/kg/injection, schedule: Q01DX009 (ip), vehicle: suspension in saline 103 % of control | dose: 2.0 mg/kg/injection, schedule: Q01DX009 (ip), vehicle: suspension in saline 103 % of control | dose: 4.0 mg/kg/injection, schedule: Q01DX009 (ip), vehicle: suspension in saline 106 % of control | dose: 8.0 mg/kg/injection, schedule: Q01DX009 (ip), vehicle: suspension in saline 109 % of control

O=C1C(Cl)=C(Cl)C(=O)C2=C1C1c3ccccc3C2c2ccccc21
inactive: [3] 104 % of control | [4] 103 % of control | [5] 103 % of control

N#Cc1nc(C#N)c(Sc2ccccc2)c(Sc2ccccc2)c1Sc1ccccc1
inactive: [6] 95 % of control | dose: 6.25 mg/kg/injection, schedule: Q01DX009 (ip), vehicle: saline with Tween-80 94 % of control | [3] 97 % of control | [4] 95 % of control | [5] 98 % of control | [7] 98 % of control

O=C1c2ccccc2C(=O)c2c3c(cc(NCCNCCO)c21)N(CCO)CCN3
inactive: dose: 50.0 mg/kg/injection, schedule: Q01DX009 (ip), vehicle: DMSO 108 % of control

C/C=C/C=C/c1cc2cc3c(c(O)c2c(=O)[nH]1)C1(CC3)C(O)=c2c(=O)c3c(=O)cc(OC)c(=O)c=3c(=O)c2=C1O (stereo unspecified)
inactive: dose: 0.06 mg/kg/injection, schedule: Q01DX009 (ip), vehicle: DMSO 97 % of control | dose: 0.12 mg/kg/injection, schedule: Q01DX009 (ip), vehicle: DMSO 102 % of control | dose: 0.25 mg/kg/injection, schedule: Q01DX009 (ip), vehicle: DMSO 95 % of control and 101 % of control | dose: 0.5 mg/kg/injection, schedule: Q01DX009 (ip), vehicle: DMSO 102 % of control | dose: 16.0 micrograms/kg/injection, schedule: Q01DX009 (ip), vehicle: DMSO 102 % of control | dose: 31.0 micrograms/kg/injection, schedule: Q01DX009 (ip), vehicle: DMSO 93 % of control | dose: 62.0 micrograms/kg/injection, schedule: Q01DX009 (ip), vehicle: DMSO 91 % of control | dose: 125.0 micrograms/kg/injection, schedule: Q01DX009 (ip), vehicle: DMSO 102 % of control

O=C1C=CC(=O)O1 (tested in a mixture with another compound)
inactive: [1] 101 % of control | [2] 94 % of control | [8] 103 % of control | dose: 200.0 mg/kg/injection, schedule: Q01DX009 (ip), vehicle: saline 95 % of control

Nc1nc2c(ncn2C2OC(CO)C(O)C2N)c(=O)[nH]1 (stereo unspecified)
inactive: dose: 3.0 mg/kg/injection, schedule: Q01DX009 (ip), vehicle: saline with Tween-80 101 % of control | dose: 6.0 mg/kg/injection, schedule: Q01DX009 (ip), vehicle: saline with Tween-80 110 % of control | dose: 12.0 mg/kg/injection, schedule: Q01DX009 (ip), vehicle: saline with Tween-80 108 % of control | dose: 24.0 mg/kg/injection, schedule: Q01DX009 (ip), vehicle: saline with Tween-80 99 % of control

C/C=C/C1=CC(=O)C(O)C1O (stereo unspecified)
inactive: dose: 25.0 mg/kg/injection, schedule: Q01DX009 (ip), vehicle: water 103 % of control | dose: 50.0 mg/kg/injection, schedule: Q01DX009 (ip), vehicle: water 99 % of control | dose: 100.0 mg/kg/injection, schedule: Q01DX009 (ip), vehicle: water 101 % of control

NC(=O)c1[nH]nc(C2OC(CO)C(O)C2O)c1O (stereo unspecified)
inactive: dose: 78.13 micrograms/kg/injection, schedule: Q01DX009 (ip), vehicle: water 98 % of control | dose: 156.25 micrograms/kg/injection, schedule: Q01DX009 (ip), vehicle: water 118 % of control | dose: 312.5 micrograms/kg/injection, schedule: Q01DX009 (ip), vehicle: water 87 % of control | dose: 625.0 micrograms/kg/injection, schedule: Q01DX009 (ip), vehicle: water 122 % of control

CC(C)n1cnc2c(Cl)ncnc21
inactive: [4] 113 % of control | [5] 95 % of control

CC(C)NC(=O)OCc1c(COC(=O)NC(C)C)c(-c2ccc(Cl)c(Cl)c2)n2c1CCC2
inactive: dose: 1.56 mg/kg/injection, schedule: Q01DX009 (ip), vehicle: distilled water + Tween-80 108 % of control | dose: 3.13 mg/kg/injection, schedule: Q01DX009 (ip), vehicle: distilled water + Tween-80 97 % of control | [9] 101 % of control | [10] 119 % of control | [11] 109 % of control

COc1cc(NS(C)(=O)=O)ccc1Nc1c2ccccc2nc2ccccc12
inactive: dose: 3.6 mg/kg/injection, schedule: Q04DX003 (ip), vehicle: clinical formulation 104 % of control | dose: 6.0 mg/kg/injection, schedule: Q04DX003 (ip), vehicle: clinical formulation 108 % of control | dose: 16.7 mg/kg/injection, schedule: Q04DX003 (ip), vehicle: clinical formulation 121 % of control

Nc1cc(Cl)c2[nH]cnc2n1
inactive: [9] 106 % of control | [10] 98 % of control | dose: 25.0 mg/kg/injection, schedule: Q01DX009 (ip), vehicle: distilled water + Tween-80 109 % of control | [11] 113 % of control | dose: 100.0 mg/kg/injection, schedule: Q01DX009 (ip), vehicle: distilled water + Tween-80 107 % of control

CC(=O)OCC1OC(n2ccc(N)nc2=O)C(OC(C)=O)C1OC(C)=O (stereo unspecified)
inactive: [12] 122 % of control | [1] 98 % of control | [2] 109 % of control

COC1=C(NC(C)=O)C(=O)c2nc(-c3nc(C(=O)O)c(C)c(-c4ccc(OC)c(OC)c4O)c3N)ccc2C1=O
inactive: dose: 6.0 mg/kg/injection, schedule: Q01DX009 (ip), vehicle: Klucel (hydroxypropylcellulose) (HPC) 101 % of control | dose: 12.0 mg/kg/injection, schedule: Q01DX009 (ip), vehicle: Klucel (hydroxypropylcellulose) (HPC) 96 % of control | dose: 25.0 mg/kg/injection, schedule: Q01DX009 (ip), vehicle: Klucel (hydroxypropylcellulose) (HPC) 98 % of control | dose: 50.0 mg/kg/injection, schedule: Q01DX009 (ip), vehicle: Klucel (hydroxypropylcellulose) (HPC) 97 % of control

Oc1ccc2ccccc2c1N=Nc1ccc(F)cc1
inactive: [7] 106 % of control | dose: 200.0 mg/kg/injection, schedule: Q01DX009 (ip), vehicle: saline with Tween-80 91 % of control | dose: 400.0 mg/kg/injection, schedule: Q01DX009 (ip), vehicle: saline with Tween-80 106 % of control

CCCCCCCCCCCCN1C(C)=CS/C1=C\C=C\c1scc(C)[n+]1CCCCCCCCCCCC
inactive: dose: 0.78 mg/kg/injection, schedule: Q01DX009 (ip), vehicle: saline with Tween-80 95 % of control | dose: 1.56 mg/kg/injection, schedule: Q01DX009 (ip), vehicle: saline with Tween-80 98 % of control | [6] 91 % of control

OCCNCCNc1ccnc2cc(Cl)ccc12
inactive: [12] 115 % of control | [1] 94 % of control | [2] 107 % of control | [8] 98 % of control
